Results as given in US7084141B2, “Inhibitors of macrophase migration inhibitory factor and methods for identifying the same” (Avanir Pharmaceuticals, priority 2001, dated 2006).

Assays:
[1] = target: T1, MIF produced by THP-1 cells (Homo sapiens, UniProt P14174); assay: ELISA of immunoreactive MIF from LPS stimulated THP-1 cells treated with compound; type: cell-based
T1 construct: a test cell may express the MIF naturally (e.g., THP-1 cells); endogenous in cells; host or cells: THP-1 cells stimulated with LPS
T1 sequence (P14174 2-115 limits assumed): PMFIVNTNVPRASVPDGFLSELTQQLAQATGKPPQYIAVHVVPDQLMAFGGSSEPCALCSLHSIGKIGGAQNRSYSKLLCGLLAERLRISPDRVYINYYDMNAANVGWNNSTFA
Experimental: Alternatively, ELISA may be preferred to detect and quantify the amount of MIF in cell supernatants. ELISA is preferred for detection in high throughput screening. Briefly, 96-well plates are coated with an anti-MIF antibody or anti-tag antibody, washed, and blocked with 2% BSA. Cell supernatant is then added to the wells. Following incubation and washing, a second antibody (e.g., to MIF) is added. The second antibody may be coupled to a label or detecting reagent, such as an enzyme or to biotin. Following further incubation, a developing reagent is added and the amount of MIF determined using an ELISA plate reader. The developing reagent is a substrate for the enzyme coupled to the second antibody (typically an anti-isotype antibody) or for the enzyme coupled to streptavidin. Suitable enzymes are well known in the art and include horseradish peroxidase, which acts upon a substrate (e.g., ABTS) resulting in a colorimetric reaction. It is recognized that rather than using a second antibody coupled to an enzyme, the anti-MIF antibody may be directly coupled to the horseradish peroxidase, or other equivalent detection reagent. If desired, cell supernatants may be concentrated to raise the detection level. Further, detection methods, such as ELISA and the like may be employed to monitor intracellular as well as extracellular levels of MIF. When intracellular levels are desired, a cell lysate is preferred. When extracellular levels are desired, media can be screened.
In another experiment (FIG. 2), varying concentrations of five different inhibitor analogs were added to LPS stimulated THP-1 cells and allowed to incubate overnight. The following day the amount of immunoreactive MIF detected was evaluated by ELISA. Compound 7e inhibited the ability of the antibody to recognize MIF in a dose dependent fashion with an ED50 of 2 μM, similar to the response obtained with analogs compound 7b and compound 7d.
In a further experiment (FIG. 3), the ability of compound 7e to decrease the immunoreactivity of MIF produced by THP-1 cells was determined. THP-1 cells were treated with 10 μg/ml of LPS and 10 μM of compound 7e was added at various times post-LPS stimulation and immunoreactivity monitored with an anti-MIF monoclonal. […] Thus, this experiment measures the activity of compounds or buffer alone controls on MIF detection when the compounds are initially added at various times to cell cultures and then the corresponding conditioned media samples are processed in a time dependent fashion thereafter.

MIF = target: T2, MIF (Homo sapiens, UniProt P14174); assay: Immunoprecipitation of MIF from conditioned media of LPS treated THP-1 cells with monoclonal or polyclonal antibody; type: cell-based; conditions: 10 μM compound; LPS 10 μg/ml; not observed with polyclonal antibody
T2 sequence (P14174 2-115 limits assumed): T1 sequence (P14174 2-115 limits assumed)
Experimental: Cell culture experiments were designed to characterize the activity of candidate compounds, MIF expression, trafficking, and export. Cell and conditioned medium fractions are prepared for immunoprecipitation essentially as described previously (Florkiewicz et al., Growth Factors 4:265–275, 1991; Florkiewicz et al., Ann. N.Y. Acad. Sci. 638:109–126) except that 400 μl of lysis buffer (1% NP-40, 0.5% deoxycholate, 20 mM Tris pH 7.5, 5 mM EDTA, 2 mM EGTA, 0.01 mM phenylmethylsufonyl fluoride, 10 ng/ml aprotinin, 10 ng/ml leupeptin, 10 ng/ml peptstatin) is added to the medium fraction after clarification by centrifugation in a microfuge for 15 minutes. Cell or medium fractions are incubated with monoclonal or polyclonal antibodies to MIF and GammaBind™ G Sepharose® (Pharmacia LKB Biotechnology, Uppsala, Sweden) was added for an additional 30 minutes incubation. Immune complexes are sedimented by microfuge centrifugation, washed three times with lysis buffer, and four times with ice cold immunoprecipitation wash buffer (0.15M NaCl, 0.01 M Na-phosphate pH 7.2, 1% deoxycholate, 1% NP-40, 0.1% sodium dodecyl sulfate). Immune complexes are dissociated directly in SDS gel sample buffer 125 mM Tris, pH 6.8, 4% SDS, 10% glycerol, 0.004% bromphenol blue, 2 mM EGTA, and separated by 12% SDS-PAGE. The gel is processed for fluorography, dried, and exposed to X-ray film at −70° C. […]

Q: Which results are given for `Cn1c(=O)c([N+](=O)[O-])c(N2CCN(C(=O)c3ccco3)CC2)c2ccccc21` [compound 7e]?
A: immunoreactivity of MIF with anti-MIF monoclonal ([1]; 10 μM added at various times post-LPS (10 μg/ml)): immunoreactivity is rapidly lost; EC50 ([1]; LPS stimulated THP-1 cells, incubated overnight, read-out: ED50, inhibition of the ability of the antibody to recognize MIF (ELISA)): 2 µM; detectable MIF in conditioned media using the monoclonal antibody (MIF): significant loss of detectable MIF
